Molecular target: T1, eIF4AI (Homo sapiens, UniProt P60842)
T1 construct: gene EIF4A1
Assay: synchronous fluorescence quenching, eIF4A […] with Cry […]
Assay type: binding

T1 sequence (P60842 2-406): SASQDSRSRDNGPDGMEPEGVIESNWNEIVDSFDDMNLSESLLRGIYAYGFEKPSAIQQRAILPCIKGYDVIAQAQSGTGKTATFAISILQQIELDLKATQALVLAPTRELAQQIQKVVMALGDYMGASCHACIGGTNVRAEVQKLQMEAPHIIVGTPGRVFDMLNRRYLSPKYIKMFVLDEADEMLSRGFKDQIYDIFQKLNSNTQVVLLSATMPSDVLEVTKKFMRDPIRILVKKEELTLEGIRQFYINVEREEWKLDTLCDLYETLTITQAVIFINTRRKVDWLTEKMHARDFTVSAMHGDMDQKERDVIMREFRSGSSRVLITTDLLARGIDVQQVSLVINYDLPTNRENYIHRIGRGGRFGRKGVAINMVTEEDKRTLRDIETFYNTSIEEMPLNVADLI

SMILES: C[C@H]1COC2=C1C(=O)C(=O)c1c2ccc2c1CCCC2(C)C [Cry, Cryptotanshinone]
- synchronous fluorescence quenching, eIF4A 12 μM with Cry 0-50 μM: A Cry dose-dependent fluorescence emission decrease in eIF4A associated with the induction of the quenching phenomena was observed

Reference: article PMC12027730, “Lapatinib-Resistant HER2+ Breast Cancer Cells Are Associated with Dysregulation of MAPK and p70S6K/PDCD4 Pathways and Calcium Management, Influence of Cryptotanshinone” (International Journal of Molecular Sciences, 2025)
